Data: patent US9874558B2, “Immunoassay method less affected by impurities” (Konica Minolta, Inc., priority 2012, dated 2018)

Assays:
[1] = target: T1, Lens culinaris lectin (LCA) (Lens culinaris, UniProt P02870); experiment: Dissociation constant (Kd) with labeled LCA lectin; format: binding; conditions: between sugar chain compound to be added and labeled lectin LCA; target compound AFP; read-out: Dissociation constant (Kd) x
T1 sequence (P02870 31-211 limits assumed): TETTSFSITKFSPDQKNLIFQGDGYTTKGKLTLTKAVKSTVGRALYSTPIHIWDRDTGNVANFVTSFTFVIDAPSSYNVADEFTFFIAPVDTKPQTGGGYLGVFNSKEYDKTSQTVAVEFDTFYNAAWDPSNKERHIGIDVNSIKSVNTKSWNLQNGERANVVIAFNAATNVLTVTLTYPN
T1 sequence (P02870 218-269 limits assumed): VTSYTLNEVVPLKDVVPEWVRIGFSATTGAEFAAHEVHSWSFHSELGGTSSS
Excerpt: In the present invention, the dissociation constant is defined as follows.
The binding between a sugar chain compound (A) and a lectin (B) occurs through a reversible reaction, and the following formula is established in an equilibrium state (wherein, [A] represents the concentration of the sugar chain compound (mol/L); [B] represents the concentration of the lectin (mol/L); and [A−B] represents the concentration of conjugates formed between the sugar chain compound and the lectin (mol/L)). [A−B]⇄[A]+[B]
In this case, the dissociation constant, Kd, between the sugar chain compound (A) and the lectin (B) is represented by the following equation: Kd=[A]×[B]/[A−B]

[2] = target: T1, Lens culinaris lectin (LCA); experiment: SPFS sandwich immunoassay of AFP with labeled LCA, added competing sugar chain compound, S/N ratio; conditions: AFP 3.0 ng/mL in commercially available serum, sugar chain compound 0.1% by weight in PBS for 10 minutes, none: S/N 2
[3] = target: T2, Wisteria floribunda lectin (WFA) (Wisteria floribunda, UniProt A0A218PFP3); experiment: SPFS sandwich immunoassay of PSA with labeled WFA, added competing sugar chain compound, S/N ratio; conditions: PSA in commercially available serum, sugar chain compound 0.1% by weight in PBS for 10 minutes, none: S/N 2
T2 sequence (A0A218PFP3 31-273): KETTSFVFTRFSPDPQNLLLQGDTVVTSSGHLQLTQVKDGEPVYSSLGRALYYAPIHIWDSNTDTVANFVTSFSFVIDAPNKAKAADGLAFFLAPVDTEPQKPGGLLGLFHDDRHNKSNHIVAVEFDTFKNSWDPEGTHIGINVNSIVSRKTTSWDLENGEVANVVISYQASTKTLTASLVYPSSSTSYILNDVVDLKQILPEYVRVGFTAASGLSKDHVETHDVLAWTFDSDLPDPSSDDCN
Procedure: Antigen Addition Step: To one of the thus prepared sensor chip, 0.5 mL of a solution having a PSA concentration of 1.0 ng/mL, which was prepared by diluting the LNCaP culture supernatant with a commercially available serum (manufactured by Kohjin Bio Co., Ltd.), was added and circulated for 25 minutes in place of PBS. To the other sensor chip, a commercially available serum (manufactured by Kohjin Bio Co., Ltd.) containing no LNCaP culture supernatant was added and circulated for 25 minutes.
Washing Step: Each sensor chip was washed by circulating TBS containing 0.05% by weight of Tween 20 as a transfer liquid. Here, using a laser light source, the metal thin films of the sensor chip were irradiated with laser light having a wavelength of 635 nm, whose photon amount was adjusted by an optical filter (manufactured by Sigmakoki Co., Ltd.), through a prism (“S-LAL 10” manufactured by Ohara Inc. (refractive index [n]=1.72)), and the blank fluorescence was detected using a CCD image sensor (manufactured by Texas Instruments Inc.) equipped with a cut filter for cutting light having wavelengths of non-fluorescent components and an objective lens (×20). […]
Further, also for each of the following cases, the same experiment as described above was carried out and the S/N ratio was determined: […]

SMILES | Kd [1] | S/N [2] | S/N [3]
CC(C)CCCC(C)C1CCC2C3CC=C4CC(OC(=O)NCCOC5OC(CO)[C@H](O)C(O)[C@@H]5O)CC[C@]4(C)C3CC[C@]12C (stereo partly drawn) [Man-2-Chol] | 220 µM | 3 | 
CC(C)CCCC(C)C1CCC2C3CC=C4CC(OC(=O)NCCOC5OC(C)[C@@H](O)C(O)[C@H]5O)CC[C@]4(C)C3CC[C@]12C (stereo partly drawn) [Fuc-2-Chol] |  |  | 3
